# Reference: patent publication US7732491B2, “Treatment of breast cancer with a PARP inhibitor alone or in combination with anti-tumor agents” (priority 2007, dated 2010)
# pIC50: −log10 of the molar value.
# Assays:
# [1] = system: MDA-MB-468 triple negative breast adenocarcinoma cell line; experiment: Cell cycle analysis (PI staining, flow cytometry); assay type: cell-based, human; parameters: G1 / S / G2/M: unit not given here
# [2] = system: MDA-MB-468 triple negative breast adenocarcinoma cell line; experiment: Vital cells, % control; assay type: cell-based, human
# Protocol: (§1) Breast cancer cells are obtained from ATCC and cultured in Dulbecco Modified Eagle Medium with 10% fetal bovine serum. Cells are plated at 10^5 cells per P100 cell culture dish or at 10^4 cells per P60 cell culture dish in the presence of different concentrations compounds or DMSO control. Following treatment, the number of attached cells is measured using Coulter counter, and by staining with 1% methylene blue. Methylene blue is dissolved in 50%-50% mixture of Methanol and water. Cells are plated in 24- or 96-well plates and treated as planned, media are aspirated, cells are washed with PBS, fixed in methanol for 5-10 min, methanol is aspirated and plates are allowed to dry completely. Methylene blue solution is added to wells and plates are incubated for 5 min. Staining solution is removed and plates are washed with dH2O until washes are no longer blue. After plates are completely dry, a small amount of 1N HCl is added to each well to extract the methylene blue. The OD readout at 600 nm and a calibration curve are used to determine cell number.
# After the addition of drugs and incubation, cells are trypsinized and aliquots of the samples are taken for counting and PI (Propidium Iodide) exclusion assay. One part of the cells is centrifuged and resuspended in 0.5 ml ice-cold PBS containing 5 μg/ml of PI. The other part of the cells is fixed in ice-cold 70% ethanol and stored in a freezer overnight. For cell cycle analysis, cells are stained with propidium iodide (PI) by standard procedures. Cellular DNA content is determined by flow cytometry using BD LSRII FACS, and the percentages of cells in G1, S or G2/M are determined using ModFit software.
# as §1, with “min.” for “min,”
# PI exclusion, cell cycle, TUNEL assays, and BrdU labeling assays are performed as described above in Example 2.
# [3] = Tissue distribution / blood-brain barrier; conditions: in vivo
# Description: (§2) The person skilled in the art will recognize that BA may be administered in any pharmaceutically acceptable form. e.g. as a pharmaceutically acceptable salt, solvate, or complex. Additionally, as BA is capable of tautomerizing in solution, the tautomeric form of BA is intended to be embraced by the term BA (or the equivalent 4-iodo-3-nitrobenzamide), along with the salts, solvates or complexes. In some embodiments, BA may be administered in combination with a cyclodextrin, such as hydroxypropylbetacyclodextrin.
# While not wishing to be bound by any particular theory, it is believed that BA achieves its anti-neoplastic effect by inhibiting the function of PARP. In some embodiments, BA can be used in the treatment of triple negative metastatic breast tumors. In some embodiments, BA can be used in the treatment of breast tumors in which at least one of ER, PR, and Her2 is negative. In some embodiments, BA can be used in the treatment of breast tumors in which at least two of ER, PR, and Her2 is negative, e.g. ER-negative, PR-negative, and Her-2 positive; or ER-positive, PR-negative, and Her-2 negative; or ER-negative, PR-positive, and Her-2 negative.
# [4] = in vivo; cited from earlier work
# advanced breast tumors = experiment: Phase 1b open-label dose escalation study of BA with chemotherapeutic regimens; assay type: in vivo, human
# PARP = biological target: T1, PARP (Homo sapiens, UniProt P09874); experiment: PARP inhibition in peripheral mononuclear blood cells (PMBCs) from patients; assay type: in vivo
# T1 construct: endogenous in cells; host or cells: peripheral blood mononuclear cells (PBMCs) from patients
# T1 sequence (P09874 whole entry): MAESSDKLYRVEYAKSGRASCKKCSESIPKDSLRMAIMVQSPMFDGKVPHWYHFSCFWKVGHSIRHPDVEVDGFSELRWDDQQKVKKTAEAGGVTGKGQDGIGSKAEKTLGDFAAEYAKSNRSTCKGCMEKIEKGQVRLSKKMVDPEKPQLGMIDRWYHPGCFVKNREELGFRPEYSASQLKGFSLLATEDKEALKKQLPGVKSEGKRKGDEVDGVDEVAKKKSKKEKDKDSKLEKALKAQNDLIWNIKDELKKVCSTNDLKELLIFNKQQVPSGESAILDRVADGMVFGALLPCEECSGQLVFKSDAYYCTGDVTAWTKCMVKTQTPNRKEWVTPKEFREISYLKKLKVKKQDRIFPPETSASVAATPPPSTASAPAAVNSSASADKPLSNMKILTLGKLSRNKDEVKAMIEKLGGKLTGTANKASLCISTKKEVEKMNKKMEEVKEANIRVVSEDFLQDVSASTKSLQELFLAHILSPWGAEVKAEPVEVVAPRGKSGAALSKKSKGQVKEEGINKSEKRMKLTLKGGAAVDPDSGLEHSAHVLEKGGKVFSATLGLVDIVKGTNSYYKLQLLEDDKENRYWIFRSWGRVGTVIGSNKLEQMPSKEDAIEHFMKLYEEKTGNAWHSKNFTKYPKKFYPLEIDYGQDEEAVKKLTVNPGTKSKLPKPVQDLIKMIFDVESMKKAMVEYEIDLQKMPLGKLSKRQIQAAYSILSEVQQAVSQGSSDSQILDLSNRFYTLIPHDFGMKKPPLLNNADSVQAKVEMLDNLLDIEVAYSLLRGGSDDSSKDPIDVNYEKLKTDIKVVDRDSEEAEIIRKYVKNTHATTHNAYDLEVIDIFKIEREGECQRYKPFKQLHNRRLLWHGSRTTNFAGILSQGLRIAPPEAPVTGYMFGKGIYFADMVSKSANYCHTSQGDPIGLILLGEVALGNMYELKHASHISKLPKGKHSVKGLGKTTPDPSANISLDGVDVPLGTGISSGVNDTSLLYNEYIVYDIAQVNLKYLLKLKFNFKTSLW
# Protocol: The functional activity of PARP before and after treatment of BA will be determined using a PARP activity assay in Peripheral Blood Mononuclear Cells (PBMCs). PBMCs will be prepared from 5 mL blood samples according to procedures described in detail in the study manual and PARP activity/inhibition will be measured.
# Lipophilicity = assay type: physicochemical
# Description: as §2
# Bcr-abl = conditions: read-out: inhibits Bcr-abl phosphorylation, IC50; cited from earlier work
# [5] = system: panel of 63 other kinases, including native c-Abl; conditions: cited from earlier work
# [6] = prepared as directed (10 mg/ml); room temperature; cited from earlier work
smiles,measurement,setting,value
"COc1cc([C@@H]2c3cc4c(cc3[C@H](O)[C@H]3COC(=O)[C@@H]23)OCO4)cc(OC)c1OC [PPP, Picropodophyllin, reference compound]",G1,[1]; PPP 200 nM + 201 0 uM,51.42
same,G2/M,[1]; PPP 200 nM + 201 0 uM,15.01
same,S,[1]; PPP 200 nM + 201 0 uM,30.22
same,G1,[1]; PPP 400 nM + 201 0 uM,37.29
same,G2/M,[1]; PPP 400 nM + 201 0 uM,20.17
same,S,[1]; PPP 400 nM + 201 0 uM,25.32
same,Vital Cell % control,[2]; PPP 200 nM + 201 0 uM,89 % control
same,Vital Cell % control,[2]; PPP 400 nM + 201 0 uM,60 % control
"NC(=O)c1ccc(I)c([N+](=O)[O-])c1 [BA, 4-iodo-3-nitrobenzamide]",tissue distribution,[3],"distributes rapidly and widely into tissues, including the brain and cerebrospinal fluid (CSF)"
same,blood-brain barrier,[4],cross the blood-brain barrier
same,effect on cell cycle arrest and antiproliferative effect of gamma irradiation,"[1]; 3 gray of gamma irradiation with 100 μM of BA, FIG. 6",potentiates S- and G2/M cell cycle arrest and enhances the antiproliferative effect of gamma irradiation
same,effect on cell cycle arrest and cytotoxic effects induced by PPP,[1]; BA in combination with PPP,potentiates S- and G2/M cell cycle arrest and enhances cytotoxic effects
same,effect on cell cycle arrest and cytotoxic effects induced by carboplatin or gemcitabine,"[1]; BA in combination with gemcitabine or carboplatin, FIG. 2",potentiates S- and G2/M cell cycle arrest and enhances cytotoxic effects
same,effect on cell cycle arrest and cytotoxic effects induced by irinotecan,[1]; BA in combination with irinotecan,potentiates S- and G2/M cell cycle arrest and enhances cytotoxic effects
same,G1,[1]; Irinotecan 0 uM + BA 50 uM,65.50
same,G2/M,[1]; Irinotecan 0 uM + BA 50 uM,11.02
same,S,[1]; Irinotecan 0 uM + BA 50 uM,23.48
same,G1,[1]; Irinotecan 0 uM + BA 100 uM,57.72
same,G2/M,[1]; Irinotecan 0 uM + BA 100 uM,15.34
same,S,[1]; Irinotecan 0 uM + BA 100 uM,26.93
same,G1,[1]; PPP 0 nM + 201 50 uM,50.20
same,G2/M,[1]; PPP 0 nM + 201 50 uM,15.21
same,S,[1]; PPP 0 nM + 201 50 uM,31.34
same,G1,[1]; PPP 0 nM + 201 100 uM,40.63
same,G2/M,[1]; PPP 0 nM + 201 100 uM,20.16
same,S,[1]; PPP 0 nM + 201 100 uM,34.52
same,subjects with evidence of stable disease for 2 cycles of treatment or more,advanced breast tumors; BA in combination with chemotherapeutic regimens,Approximately 80%
same,tolerability of combination of BA with each cytotoxic regimen,"advanced breast tumors; with topotecan, gemcitabine, temozolomide, or carboplatin+paclitaxel",well tolerated
same,"vital cells, % control",[2]; Irinotecan 0 uM + BA 50 uM,91.5 % control
same,"vital cells, % control",[2]; Irinotecan 0 uM + BA 100 uM,67.5 % control
same,Vital Cell % control,[2]; PPP 0 nM + 201 50 uM,82 % control
same,Vital Cell % control,[2]; PPP 0 nM + 201 100 uM,61 % control
same,biologically relevant dose that elicits significant and sustained PARP inhibition,PARP; Phase 1b,2.8 mg/kg
same,PARP inhibition in PBMCs from patients,"PARP; after multiple dosing with BA doses of 2.8 mg/kg or higher, FIG. 3",significant and prolonged PARP inhibition
same,lipophilicity,Lipophilicity,very lipophilic
"CCc1c2c(nc3ccc(OC(=O)N4CCC(N5CCCCC5)CC4)cc13)-c1cc3c(c(=O)n1C2)COC(=O)[C@]3(O)CC [Irinotecan, reference compound]",G1,[1]; Irinotecan 5 uM + BA 0 uM,38.17
same,G2/M,[1]; Irinotecan 5 uM + BA 0 uM,28.05
same,S,[1]; Irinotecan 5 uM + BA 0 uM,33.77
same,"vital cells, % control",[2]; Irinotecan 5 uM + BA 0 uM,48.6 % control
NC(=O)c1cccc(-c2cc(Nc3ccc(OC(F)(F)F)cc3)ncn2)c1 [GNF-2],pIC50,Bcr-abl,6.57
same,"inhibition of a panel of 63 other kinases, including native c-Abl",[5],does not inhibit
N.N.O=C([O-])C1(C(=O)[O-])CCC1.[Pt+2] [carboplatin],stability of carboplatin solutions,[6],eight
